Data reported in ChEMBL document CHEMBL3046135, “Iodine (III)-mediated synthesis of some 2-aryl/hetarylbenzoxazoles as antibacterial/antifungal agents” (2010).
Calls of active or inactive are those of the source. The calls are words filed in the database; no cut-off is given here.

What was measured:
Assay type in all cases: functional
Aspergillus flavus [1] = test: Antifungal activity against Aspergillus flavus at 50 ug/ml after 96 hr
Escherichia coli [2] = test: Antibacterial activity against Escherichia coli MTCC 51 at 100 ug/ml after 24 hr by agar well diffusion method
Bacillus subtilis [3] = test: Antibacterial activity against Bacillus subtilis MTCC 121 at 50 ug/ml after 24 hr by agar well diffusion method
Aspergillus niger [4] = test: Antifungal activity against Aspergillus niger at 50 ug/ml after 96 hr
[5] = test system: Geobacillus stearothermophilus; test: Antibacterial activity against Geobacillus stearothermophilus MTCC 8508 at 50 ug/ml after 24 hr by agar well diffusion method
Escherichia coli [6] = test: Antibacterial activity against Escherichia coli MTCC 51 at 10 ug/ml after 24 hr by agar well diffusion method
Aspergillus flavus [7] = test: Antifungal activity against Aspergillus flavus at 10 ug/ml after 96 hr
Pseudomonas putida [8] = test: Antibacterial activity against Pseudomonas putida at 100 ug/ml after 24 hr by agar well diffusion method
Escherichia coli [9] = test: Antibacterial activity against Escherichia coli MTCC 51 at 50 ug/ml after 24 hr by agar well diffusion method
Pseudomonas putida [10] = test: Antibacterial activity against Pseudomonas putida at 10 ug/ml after 24 hr by agar well diffusion method
Aspergillus niger [11] = test: Antifungal activity against Aspergillus niger at 10 ug/ml after 96 hr
[12] = test system: Geobacillus stearothermophilus; test: Antibacterial activity against Geobacillus stearothermophilus MTCC 8508 at 10 ug/ml after 24 hr by agar well diffusion method
Pseudomonas putida [13] = test: Antibacterial activity against Pseudomonas putida at 50 ug/ml after 24 hr by agar well diffusion method
Bacillus subtilis [14] = test: Antibacterial activity against Bacillus subtilis MTCC 121 at 100 ug/ml after 24 hr by agar well diffusion method
[15] = test system: Geobacillus stearothermophilus; test: Antibacterial activity against Geobacillus stearothermophilus MTCC 8508 at 100 ug/ml after 24 hr by agar well diffusion method
Aspergillus flavus [16] = test: Antifungal activity against Aspergillus flavus at 100 ug/ml after 96 hr
Aspergillus niger [17] = test: Antifungal activity against Aspergillus niger at 100 ug/ml after 96 hr
Bacillus subtilis [18] = test: Antibacterial activity against Bacillus subtilis MTCC 121 at 10 ug/ml after 24 hr by agar well diffusion method

Row | SMILES | inhibition at 50 µg/mL (Aspergillus flavus [1]) [%] | diameter of the inhibition zone (DIZ) (Escherichia coli [2]) [%] | diameter of the inhibition zone (DIZ) (Bacillus subtilis [3]) [%] | inhibition at 50 µg/mL (Aspergillus niger [4]) [%] | diameter of the inhibition zone (DIZ) [5] [%] | diameter of the inhibition zone (DIZ) (Escherichia coli [6]) | inhibition at 10 µg/mL (Aspergillus flavus [7]) [%] | diameter of the inhibition zone (DIZ) (Pseudomonas putida [8]) [%] | diameter of the inhibition zone (DIZ) (Escherichia coli [9]) [%] | diameter of the inhibition zone (DIZ) (Pseudomonas putida [10]) | inhibition at 10 µg/mL (Aspergillus niger [11]) [%] | diameter of the inhibition zone (DIZ) [12] | diameter of the inhibition zone (DIZ) (Pseudomonas putida [13]) [%] | diameter of the inhibition zone (DIZ) (Bacillus subtilis [14]) [%] | diameter of the inhibition zone (DIZ) [15] [%] | inhibition at 100 µg/mL (Aspergillus flavus [16]) [%] | inhibition at 100 µg/mL (Aspergillus niger [17]) [%] | diameter of the inhibition zone (DIZ) (Bacillus subtilis [18])
1 | O=[N+]([O-])c1ccc(-c2nc3cc(Cl)ccc3o2)cc1 | 49.6 | 30.24 | 10.13 | 66.9 | 12.26 | inactive | 19.9 | 31.16 | 17.14 | inactive | 43.2 | inactive | 18.13 | 17.22 | 19.37 | 78.5 | 73.6 | inactive
2 | Clc1ccc2oc(-c3ccccc3)nc2c1 | 51.4 | 45.33 | 26.47 | 5.88 | 27.21 | 19.92% | 29 | 76.33 | 33.87 | 15.21% | 8.93 | 10.66% | 57.66 | 36.74 | 36.44 | 86.2 | 21.9 | 10.21%
3 | c1csc(-c2nc3ccccc3o2)c1 | 63.1 | 36.66 | 21.26 | 64.7 | 20.43 | 11.66% | 21.1 | 33.33 | 26.28 | 9.66% | 41.7 | 10.33% | 24.34 | 31.72 | 31.33 | 88.5 | 82.3 | 12.66%
4 | Cc1ccc(-c2nc3cc(Cl)ccc3o2)s1 [5-CHLORO-2-(5-METHYLTHIOPHEN-2-YL)BENZO[D]OXAZOLE] | 24.9 | 31.74 | 10.33 | 63.9 | 12.66 | inactive | 13.7 | 32.66 | 17.44 | inactive | 12.4 | inactive | 18.33 | 16.66 | 18.47 | 37.5 | 71.9 | inactive
5 | Clc1ccc2oc(-c3cccnc3)nc2c1 | 26.3 | 36.74 | 22.16 | 41.7 | 21.43 | 12.66% | 15.8 | 35.33 | 27.33 | 9.66% | 17.6 | 11.33% | 25.33 | 33.33 | 32.33 | 78.9 | 76.5 | 13.33%
6 | O=C(N[C@H](CO)[C@H](O)c1ccc([N+](=O)[O-])cc1)C(Cl)Cl [CHLORAMPHENICOL] | – | 65.4 | 47.2 | – | 53.2 | 20.33% | – | 71.24 | 50.4 | 19.33% | – | 25.33% | 43.4 | 64.2 | 77.2 | – | – | 26.33%
7 | COc1cc(-c2nc3cc(Cl)ccc3o2)ccc1O [4-(5-CHLOROBENZO[D]OXAZOL-2-YL)-2-METHOXYPHENOL] | 51.4 | 31.33 | 20.43 | 5.88 | 21.33 | 9.33% | 29 | 37.33 | 21.43 | 12.66% | 8.93 | 10.66% | 26.33 | 31.33 | 31.74 | 86.2 | 21.9 | 9.33%
8 | Clc1ccc2oc(-c3cccs3)nc2c1 | 47.4 | 43.33 | 30.53 | 5.88 | 32.66 | 17.74% | 21.1 | 44.77 | 31.77 | 19.66% | 4.89 | 21.33% | 33.66 | 41.66 | 39.66 | 84.2 | 11.8 | 19.66%
9 | C[C@@H]1C[C@@H]([C@H](O)CC2CC(=O)NC(=O)C2)C(=O)[C@@H](C)C1 [CYCLOHEXIMIDE] | 63.1 | – | – | 23.5 | – | – | 15.8 | – | – | – | 11.8 | – | – | – | – | 78.9 | 35.3 | –
